Source: ChEMBL document CHEMBL1159213, “Terezines A-D: new amino acid-derived bioactive metabolites from the coprophilous fungus Sporormiella teretispora” (1995)

What was measured:
Format in all cases: functional
Sordaria fimicola = assay: Antifungal activity against Sordaria fimicola NRRL 6459 assessed as reduction in radial growth at 200 ug/disk by centerpoint inoculation disk assay; parameters: scale not given: the % may be the effect or the level left
Candida albicans = assay: Antifungal activity against Candida albicans ATCC 14053 at 200 ug/disk by standard disk assay; conditions: read-out: IZ
Ascobolus = assay: Antifungal activity against Ascobolus furfuraceus NRRL 6460 assessed as reduction in radial growth at 200 ug/disk by centerpoint inoculation disk assay; parameters: scale not given: the % may be the effect or the level left
Bacillus subtilis = assay: Antibacterial activity against Bacillus subtilis ATCC 6051 at 100 ug/disk by standard disk assay; conditions: read-out: IZ
Staphylococcus aureus = assay: Antibacterial activity against Staphylococcus aureus ATCC 29213 at 100 ug/disk by standard disk assay; conditions: read-out: IZ

SMILES: COc1nc(C(C)C)c(O)nc1[C@H](O)c1ccccc1 [TEREZINE A]
- Activity (Sordaria fimicola): 95%
- zone of inhibition at 200 µg/disc (Candida albicans): 8 mm
- Activity (Ascobolus): 95%
- zone of inhibition at 100 µg/disc (Bacillus subtilis): 8 mm
- zone of inhibition at 100 µg/disc (Staphylococcus aureus): 8 mm

SMILES: COC1=N[C@@](OC)(C(C)C)C(=O)N[C@@]1(O)[C@H](O)c1ccccc1 [TEREZINE C]
- Activity (Sordaria fimicola): 41%
- zone of inhibition at 100 µg/disc (Bacillus subtilis): 8 mm
- zone of inhibition at 100 µg/disc (Staphylococcus aureus): 8 mm

SMILES: COC1=N[C@](OC)(C(C)C)C(=O)N[C@@]1(O)[C@H](O)c1ccccc1 [TEREZINE B]
- zone of inhibition at 100 µg/disc (Bacillus subtilis): 8 mm

SMILES: CC(C)=CCc1cccc2c(C[C@@H]3NC(=O)[C@H](C)NC3=O)c[nH]c12 [TEREZINE D]
- Activity (Sordaria fimicola): 50%
